Data as given in patent publication US20240010680A1, “PEPTIDE DISINFECTANT FOR PREVENTING CORONAVIRUSES” (Xiamen University, priority 2021, published 2024).
pKd: −log10 of the molar value. Where no end group is shown, it is not given here.

Biological target: hACE2 (Homo sapiens, UniProt Q9BYF1)
Test: Biacore T200 molecular binding (affinity analysis) of peptides on a CM5-hACE2 chip
From the text: Embodiment 1: Testing a Binding Capacity Between Peptide1 & Peptide2 and Derivatives Thereof and hACE2 Based on a Biacore Molecular Binding System (e.g., GE Biacore T200)
Apparatus: GE Biacore T200.
Materials and reagents: Series S Sensor Chip CM5 (GE Life100530), hACE2 purified protein, Peptide1 & Peptide2 and their derivatives (See Table 1), Amine Coupling Kit (GELife100050, Phosphate-buffered saline (PBS), glycine-hydrochloric acid buffer solution (pH 2.5)).
(1) Preparing a Capture Surface and a Binding Experiment
Materials: 1-(3-Dimethylaminopropyl)-3-ethylcarbodiimide hydrochloride (EDC), N-Hydroxysuccinimide (NHS), ethanolamine (an amine coupling kit), PBS, hACE2, Series S Sensor Chip CM5.
Specific Steps: • a. The GE Biacore T200 is started, the Series S Sensor Chip CM5 is embedded into the GE Biacore T200, the PBS is degassed to obtain a degassed PBS, and the degassed PBS is used throughout the experiment; • b. The NHS, the EDC, the ethanolamine, and the hACE2 (1 mg/mL) are placed on a feeding plate of the GE Biacore T200 according to volumes indicated by the GE Biacore T200 using Eppendorf (EP) tubes in sufficient quantities; • c. A sample is injected at a flow rate of 5 μL/min, an activation of the Series S Sensor Chip CM5, amine coupling of the hACE2, and saturating an activated carboxyl group that is uncoupled with the hACE2 using the ethanolamine are sequentially performed to obtain an RUs value of the hACE2, and the RUs value is 14826.0; • d. A mobile solution (the degassed PBS) is closed, a command window is closed, and a report is served to obtain a CM5-hACE2 chip;
(2) Affinity analysis of peptides with hACE from Table 1
Materials: the PBS, the CM5-hACE2 chip, the peptides in the Table 1, and the glycine-hydrochloric acid buffer solution (pH 2.5).
Specific Steps: • a. Preparing different dilutions as samples for testing: the peptides in Table 1 to be tested at a concentration of 3 mmol/L (mM) are dissolved and sequentially diluted into different dilutions of 100 μmol/L (μM), 60 μM, 30 μM, 10 μM, 3 μM, 1 μM, 0.3 μM, and 0 using the PBS to obtain the samples. Each of the different dilutions is ensured to have a volume of no less than 400 μL and separately packaged on EP tubes. The samples are placed on a test plate of the GE Biacore T200, and the test plate is stuck in a test slot; • b. […]

Chain of hACE2 (Q9BYF1 18-805): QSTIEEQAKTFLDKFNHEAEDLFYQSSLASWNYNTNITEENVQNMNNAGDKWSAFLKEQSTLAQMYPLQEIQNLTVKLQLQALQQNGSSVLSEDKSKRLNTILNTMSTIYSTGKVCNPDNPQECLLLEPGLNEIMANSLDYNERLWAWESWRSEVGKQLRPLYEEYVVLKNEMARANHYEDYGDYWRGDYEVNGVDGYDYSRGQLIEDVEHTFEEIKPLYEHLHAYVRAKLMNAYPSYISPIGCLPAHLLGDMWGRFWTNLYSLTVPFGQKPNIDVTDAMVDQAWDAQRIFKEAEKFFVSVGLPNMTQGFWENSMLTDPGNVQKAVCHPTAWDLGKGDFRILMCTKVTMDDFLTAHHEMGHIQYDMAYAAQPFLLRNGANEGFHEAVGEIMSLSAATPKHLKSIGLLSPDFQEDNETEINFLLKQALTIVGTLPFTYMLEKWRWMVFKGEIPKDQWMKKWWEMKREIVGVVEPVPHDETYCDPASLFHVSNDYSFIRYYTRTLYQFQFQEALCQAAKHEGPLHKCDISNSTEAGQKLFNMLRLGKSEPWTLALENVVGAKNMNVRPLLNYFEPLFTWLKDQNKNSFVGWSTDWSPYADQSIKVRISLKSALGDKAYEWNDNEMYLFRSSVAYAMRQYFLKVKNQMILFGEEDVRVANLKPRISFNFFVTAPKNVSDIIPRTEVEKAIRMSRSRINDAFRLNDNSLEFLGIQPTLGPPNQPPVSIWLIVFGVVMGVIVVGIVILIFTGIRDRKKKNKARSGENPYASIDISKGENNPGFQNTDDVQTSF

Row | Substance | pKd
1 | YKYRYL [Peptide1, YKYRYL] | 4.30
2 | YRYKYL [Peptide11, YRYKYL] | 4.22
3 | YSYINK [Peptide2, YSYINK] | 4.02
4 | YTYINK [Peptide22, YTYINK] | 4.23
